# Measurements reported in patent US20220177834A1, “STABLE SYSTEM FOR THE IN VITRO CULTURE OF CEREBELLAR GRANULE CELL PRECURSORS (GCP), STABLE METHOD FOR THE IN VITRO CULTURE OF SAID CELLS AND USE OF SAID SYSTEM OR METHOD FOR IN VITRO CULTURE” (UNIVERSITA DEGLI STUDI Dl ROMA "LA SAPIENZA", priority 2019, published 2022).
# Entries after “also recorded” stand apart in the source; their conditions may differ.
# Tests used:
# Shh pathway = Shh pathway expression (Gli1, N-Myc; Western Blot, real time Q-PCR) in GCP neurosphere cultures; assay type: cell-based, mouse; details: Western Blot, neurospheres under different culture conditions; SAG 200 nM, EGF 1 μM
# Experimental: (§1) After surgical resection from a mouse on the seventh day of postnatal life (P7) the cerebellum was mechanically shredded in a buffer containing HBSS, glucose and antibiotics, and DNase (at concentrations as defined above) and the individual cells thus obtained were counted and plated at a dilution of 16000 cells/cm^2 on a medium composed of DMEM-F12, glucose, Vitamin A-free B27, insulin, NALC, heparin, antibiotics (at concentrations as defined above) and SAG (200 nM) and EGF ([…]). On this medium the cells can be enriched and maintained for an unlimited time, after periodical dissociation of the spheres with Accutase® (2-3 times per week) and propagation by dilution (to prevent excessive growth and consequent death from nutrient deficiency and hypoxia). The reaction conditions were as described above.
# GCP cells = test: Clonogenicity / long-term propagation of GCP neurosphere cultures; assay type: cell-based, mouse
# Experimental: as §1
smiles,measurement,setting,value
CNC1CCC(N(Cc2cccc(-c3ccncc3)c2)C(=O)c2sc3ccccc3c2Cl)CC1 (stereo not drawn) [SAG],"expression of molecular biomarkers of the Shh pathway, Gli1 and N-Myc",Shh pathway,active; also recorded: maintains a high expression of the Shh pathway
same,long-term survival of the culture,GCP cells; factor alone,does not ensure long-term survival of the culture
same,clonogenic power (average spheres) over time,GCP cells; several weeks after being grown,undergoes progressive decline
